Where “and” joins values, the source holds several entries; their conditions need not be identical. Equal entries are not always repeated.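 Dose response: 5 concentrations. Exposure: 48 h. Format: 96-well plates. Endpoint: linear interpolation; highest concentration if not reached. GI50 is the concentration that inhibits growth by half. TGI denotes the concentration required for complete inhibition of growth.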

Among the test systems are CAKI-1 renal; HL-60(TB) leukemia; HOP-92 NSCLC; IGROV1 ovarian; NCI-H226 lung; NCI-H23 lung; NCI/ADR-RES ovarian; OVCAR-4 ovarian; OVCAR-8 ovarian; PC-3 prostate.
Holding throughout (test): inhibition of tumour cell growth, NCI panel, 48 h

For the compound `COc1ccc(/C=C\c2cc(OC)c(OC)c(OC)c2)cc1NC(=O)/C=C/c1cc(OC)c(OC)c(OC)c1`, the GI50 in the assay on CAKI-1 renal is 2.94 µM; in the assay on HL-60(TB) leukemia it was 1.95 µM; with HOP-92 NSCLC, 3.6 µM; in the assay on IGROV1 ovarian it was 9.47 µM; with NCI-H226 lung, 4.15 µM; with NCI-H23 lung, 6.96 µM. The GI50 is 2.1 µM with NCI/ADR-RES ovarian, 6.77 µM in the assay on OVCAR-4 ovarian, 5.14 µM in the assay with OVCAR-8 ovarian and 3.09 µM in the assay with PC-3 prostate. Also, the TGI is > 100 µM in the assay on CAKI-1 renal; 8.03 µM in the assay with HL-60(TB) leukemia; > 100 µM in the assay on HOP-92 NSCLC; > 100 µM in the assay with IGROV1 ovarian; > 100 µM in the assay with NCI-H226 lung; > 100 µM in the assay on NCI-H23 lung. The TGI with NCI/ADR-RES ovarian, in the assay with OVCAR-4 ovarian, in the assay with OVCAR-8 ovarian and in the assay with PC-3 prostate was > 100 µM throughout.

For `COc1cc(C2c3cc4c(cc3[C@@H](Nc3ccc(F)cc3)C3COC(=O)[C@H]23)OCO4)cc(OC)c1O` (some centres not stated), the GI50 in the assay with CAKI-1 renal is 0.29 µM; in the assay with HL-60(TB) leukemia, 0.181 µM and 0.631 µM; in the assay on NCI-H226 lung, 0.529 µM; with NCI-H23 lung it was 0.386 µM; with OVCAR-8 ovarian it was 0.886 µM. Also, the TGI was 4.68 µM with CAKI-1 renal; 0.839 µM and 6.02 µM in the assay on HL-60(TB) leukemia; 24.8 µM in the assay on HOP-92 NSCLC; 42.2 µM in the assay with IGROV1 ovarian; 0.985 µM and 5.18 µM with NCI-H226 lung; 7.56 µM with NCI-H23 lung. For the same compound, the TGI in the assay on NCI/ADR-RES ovarian was 45.7 µM; with OVCAR-4 ovarian, 49.2 µM; with OVCAR-8 ovarian, 15.6 µM; in the assay on PC-3 prostate, 23.4 µM.

Regarding `O=C(CC1(O)C(=O)Nc2ccc(Cl)cc21)c1ccc(C(=O)NCC2CCC3(CC2)OOC2(CCCCC2)OO3)cc1` (configuration not stated), the GI50 in the assay with CAKI-1 renal is 1.62 µM; in the assay with HOP-92 NSCLC, 0.509 µM; in the assay with IGROV1 ovarian it was 0.482 µM; in the assay on NCI-H226 lung, 13.1 µM; in the assay with NCI-H23 lung, 1.72 µM; in the assay with NCI/ADR-RES ovarian, 11.8 µM. Also, the GI50 in the assay on OVCAR-4 ovarian was 2.54 µM; in the assay on OVCAR-8 ovarian it was 2.68 µM; with PC-3 prostate, 1.88 µM. Further, the TGI in the assay on CAKI-1 renal is 3.27 µM; with HOP-92 NSCLC it was 2.08 µM; in the assay with IGROV1 ovarian it was 2.89 µM; in the assay with NCI-H226 lung, 41.2 µM; with NCI-H23 lung it was 21.3 µM; in the assay on NCI/ADR-RES ovarian, 45.5 µM. Besides, the TGI with OVCAR-4 ovarian was determined as 18.3 µM; with OVCAR-8 ovarian, 11.6 µM; in the assay on PC-3 prostate, 5.83 µM.

Regarding `Cc1ccc2nc(CN(CCN(Cc3nc4ccc(C)cc4[nH]3)Cc3nc4ccc(C)cc4[nH]3)Cc3nc4ccc(C)cc4[nH]3)[nH]c2c1`, the GI50 is 1.26 µM in the assay with CAKI-1 renal; 1.45 µM in the assay on HOP-92 NSCLC; 1.82 µM in the assay with IGROV1 ovarian; 1.82 µM in the assay with NCI-H226 lung; 1.89 µM in the assay with NCI/ADR-RES ovarian; 1.76 µM with OVCAR-8 ovarian. Besides, in the assay on PC-3 prostate, the GI50 is 1.85 µM. Also, the TGI with CAKI-1 renal turned out to be 2.51 µM; with HOP-92 NSCLC, 2.89 µM; in the assay on IGROV1 ovarian it was 3.35 µM; in the assay on NCI-H226 lung, 3.21 µM; with NCI/ADR-RES ovarian it was 3.36 µM; in the assay with OVCAR-8 ovarian, 3.22 µM. The compound further returned a TGI in the assay with PC-3 prostate of 3.51 µM.

Regarding `ClC/C=C/CSc1ncnc2nc[nH]c12`, the GI50 in the assay with CAKI-1 renal, in the assay on HOP-92 NSCLC, with IGROV1 ovarian, in the assay with NCI-H226 lung, in the assay on NCI-H23 lung and with NCI/ADR-RES ovarian was > 100 µM throughout. The GI50 in the assay on OVCAR-4 ovarian, in the assay with OVCAR-8 ovarian and in the assay on PC-3 prostate was > 100 µM throughout. For the same compound, the TGI in the assay on CAKI-1 renal, in the assay with HOP-92 NSCLC, with IGROV1 ovarian, with NCI-H226 lung, in the assay on NCI-H23 lung and with NCI/ADR-RES ovarian was > 100 µM in each case. Moreover, the TGI in the assay on OVCAR-4 ovarian, in the assay with OVCAR-8 ovarian and in the assay on PC-3 prostate was > 100 µM throughout.

As to `COc1cc([C@H]2OC[C@@H]3C(c4cc(OC)c5c(c4)OCO5)OC[C@H]23)cc(OC)c1OC` (some centres not stated), the TGI in the assay on CAKI-1 renal, with HOP-92 NSCLC, in the assay on IGROV1 ovarian, in the assay on NCI-H226 lung, in the assay on NCI-H23 lung and with NCI/ADR-RES ovarian was > 100 µM each time. The TGI in the assay on OVCAR-4 ovarian, in the assay on OVCAR-8 ovarian and in the assay with PC-3 prostate was > 100 µM throughout.

Consider `CN1CCN(Cc2ccc(NC(=O)c3cncc(C#Cc4c(N)ncc5ccccc45)c3)cc2C(F)(F)F)CC1`, for which the GI50 was 0.765 µM in the assay with CAKI-1 renal; 0.16 µM in the assay on HL-60(TB) leukemia; 0.158 µM in the assay with HOP-92 NSCLC; 0.373 µM with IGROV1 ovarian; 0.656 µM with NCI-H23 lung; 0.945 µM in the assay on NCI/ADR-RES ovarian. In addition, the GI50 in the assay with OVCAR-4 ovarian was 0.309 µM; in the assay with OVCAR-8 ovarian, 0.839 µM; with PC-3 prostate, 0.687 µM. Moreover, the TGI with CAKI-1 renal came to 1.44 µM; with HL-60(TB) leukemia it was 0.781 µM; in the assay on HOP-92 NSCLC, 0.836 µM; in the assay with IGROV1 ovarian, 1.2 µM; in the assay on NCI-H23 lung, 1.46 µM; in the assay with NCI/ADR-RES ovarian, 2.21 µM. Besides, the TGI with OVCAR-4 ovarian is 1.1 µM; in the assay on OVCAR-8 ovarian, 1.91 µM; in the assay with PC-3 prostate, 1.73 µM.

Regarding `COc1ccccc1NC(=O)c1sc2ncn(CCOc3ccccc3)c(=O)c2c1C`, the GI50 in the assay with CAKI-1 renal was 2.42 µM; with HL-60(TB) leukemia, 1.93 µM; in the assay on HOP-92 NSCLC, > 50 µM; with IGROV1 ovarian, 1.9 µM; in the assay on NCI-H23 lung, 4.93 µM; in the assay on NCI/ADR-RES ovarian, 1.76 µM. Besides, the GI50 in the assay on OVCAR-8 ovarian and in the assay on PC-3 prostate was > 50 µM throughout. For the same compound, the TGI in the assay with CAKI-1 renal, in the assay on HL-60(TB) leukemia, in the assay with HOP-92 NSCLC, in the assay with IGROV1 ovarian, with NCI-H23 lung and with NCI/ADR-RES ovarian was > 50 µM throughout. Also, the TGI with OVCAR-8 ovarian and in the assay on PC-3 prostate was > 50 µM each time.

`COc1ccc2c(Cl)cc(NC(=S)Nc3ccccc3)nc2c1`: the TGI in the assay with CAKI-1 renal was > 100 µM; in the assay with HOP-92 NSCLC, 49.4 µM; in the assay with IGROV1 ovarian it was 54.3 µM; in the assay with NCI-H226 lung it was > 100 µM; in the assay on NCI-H23 lung, 73.7 µM; with NCI/ADR-RES ovarian it was 54.1 µM. In addition, the TGI was > 100 µM in the assay on OVCAR-4 ovarian, 38.4 µM with OVCAR-8 ovarian and 66.4 µM with PC-3 prostate.

The values are drawn from PubChem BioAssay (NCI).
